This note sets out measurements from patent US20100255530A1, “BACTERIA DETECTION AND/OR IDENTIFICATION MEDIUM” (BIOMERIEUX, priority 2007, published 2010).

The assay deals with Citrobacter freundii 009. Put plainly: Impact of cellobiose on colony coloration, Citrobacter freundii 009. It is filed as cell-based. The note with it: cellobiose 0.5 g/l in medium combining the glucuronide and galactoside substrates. An excerpt: The coloration of these colonies is noted.

Molecules are shown by their SMILES.

As for `O=C[C@H](O)[C@@H](O)[C@H](O[C@@H]1O[C@H](CO)[C@@H](O)[C@H](O)[C@H]1O)[C@H](O)CO` [cellobiose], the “distinction of the Citrobacter 009 strain from the E. coli strains” value is “makes it possible to distinguish the Citrobacter 009 strain more clearly from the E. coli strains”.
